Results published in US20220081412A1, “QUINOLINYL-PYRAZINE-CARBOXAMIDE COMPOUNDS AND USES THEREOF” (The Regents of the University of Michigan, priority 2018, published 2022).

System: MIA PaCa-2 cells
Assay: Bru-seq analysis for nascent RNA synthesis (log2FC of genes, GSEA gene sets)
Type: cell-based, human
[1] = downregulated gene sets, C2, 4 h, MIA PaCa-2 cells

## CCN(CC)CCCC(C)Nc1cnc(C(=O)Nc2cc(C)cc3cccnc23)cn1 (stereo not drawn) [J4, 5-((5-(diethylamino)pentan-2-yl)amino)-N-(6-methylquinolin-8-yl)pyrazine-2-carboxamide]
  ES: 0.576
  NES: 1.841
  synthesis of INSIG1, DHCR7, MVK and MSMO1 RNAs: upregulated
4 h
  expression of GPR135, SPDYA and ABCA1: significant decrease
4 h of treatment
  Cell Cycle, Mitotic pathway: upregulated
AC004076.2, 4 h
  log2FC: −0.85
AC005534.1, 4 h
  log2FC: −0.75
AC005614.2, 4 h
  log2FC: −0.94
AC006141.1, 4 h
  log2FC: −0.78
AC007038.2, 4 h
  log2FC: −1.27
AC007619.1, 4 h
  log2FC: −0.84
AC007620.2, 4 h
  log2FC: −0.89
AC008115.3, 4 h
  log2FC: 0.78
AC008264.2, 4 h
  log2FC: −0.80
AC008906.1, 4 h
  log2FC: −0.98
AC010615.1, 4 h
  log2FC: −1.64
AC011379.1, 4 h
  log2FC: 0.74
AC018630.1, 4 h
  log2FC: −0.77
AC026461.1, 4 h
  log2FC: 0.86
AC068473.5, 4 h
  log2FC: 0.77
AC080080.1, 4 h
  log2FC: 0.72
AC087280.2, 4 h
  log2FC: −0.80
AC091152.2, 4 h
  log2FC: −1.06
AC091940.1, 4 h
  log2FC: −0.79
AC098934.1, 4 h
  log2FC: 0.72
AC108471.2, 4 h
  log2FC: 0.85
AC110769.2, 4 h
  log2FC: 0.80
AC117382.1, 4 h
  log2FC: −0.85
AC141586.1, 4 h
  log2FC: 0.77
AC239868.4, 4 h
  log2FC: 1.12
AL050343.1, 4 h
  log2FC: −0.82
AL133338.1, 4 h
  log2FC: 1.02
AL136984.1, 4 h
  log2FC: −1.05
AL136987.1, 4 h
  log2FC: −0.83
AL139260.1, 4 h
  log2FC: 0.88
AP001107.9, 4 h
  log2FC: 0.81
AP001830.1, 4 h
  log2FC: 0.75
AP002387.1, 4 h
  log2FC: 0.72
AP002748.3, 4 h
  log2FC: 0.76
AVPI1, 4 h
  log2FC: 1.37
BHLHE40, 4 h
  log2FC: 1.32
CASC21, 4 h
  log2FC: −0.87
CCNG2, 4 h
  log2FC: 1.62
DDIT3, 4 h
  log2FC: 1.32
DDIT4, 4 h
  log2FC: 2.33
DEPDC1-AS1, 4 h
  log2FC: 1.05
DHCR7, 4 h
  log2FC: 2.13
DNAJC3-AS1, 4 h
  log2FC: 0.75
EXTL3-AS1, 4 h
  log2FC: 0.73
FDFT1, 4 h
  log2FC: 1.65
FP671120.1, 4 h
  log2FC: −1.32
HIST1H1E, 4 h
  log2FC: 1.24
HIST1H3B, 4 h
  log2FC: 1.26
HMGCS1, 4 h
  log2FC: 1.35
HSD17B7P2, 4 h
  log2FC: 0.76
IDI1, 4 h
  log2FC: 1.49
INSIG1, 4 h
  log2FC: 2.57
KRT18P31, 4 h
  log2FC: 0.81
LINC01204, 4 h
  log2FC: −0.84
LINC01337, 4 h
  log2FC: −1.19
LINC01547, 4 h
  log2FC: 0.93
LINC01930, 4 h
  log2FC: −1.00
LIPG, 4 h
  log2FC: 1.81
LSS, 4 h
  log2FC: 1.25
MSMO1, 4 h
  log2FC: 1.65
MVD, 4 h
  log2FC: 1.36
MVK, 4 h
  log2FC: 1.68
NEU1, 4 h
  log2FC: 2.68
PCYT2, 4 h
  log2FC: 1.70
RNVU1-6, 4 h
  log2FC: −1.50
SCD, 4 h
  log2FC: 1.95
SDR39U1, 4 h
  log2FC: 1.67
SH2D5, 4 h
  log2FC: 1.29
SLC2A1-AS1, 4 h
  log2FC: 1.02
SLC2A6, 4 h
  log2FC: 1.74
SYPL1P2, 4 h
  log2FC: 0.84
TBC1D17, 4 h
  log2FC: 1.62
TPRKBP2, 4 h
  log2FC: −1.15
TUBA1A, 4 h
  log2FC: 1.24
ZNF295-AS1, 4 h
  log2FC: 0.94
[1]
  ES BILD_CTNNBl_ONCOGENIC_SIGNATURE: −0.449
  ES DACOSTA_UV_RESPONSE_VIA_ERCC3_COMMON_DN: −0.439
  ES DACOSTA_UV_RESPONSE_VIA_ERCC3_TTD_DN: −0.469
  ES DACOSTA_UV_RESPONSE_VIA_ERCC3_XPCS_DN: −0.428
  ES DAZARD_UV_RESPONSE_CLUSTER_G6: −0.408
  ES DOANE_BREAST_CANCER_CLASSES_DN: −0.578
  ES GABRIELY_MIR21_TARGETS: −0.328
  ES GUENTHER_GROWTH_SPHERICAL_VS_ADHERENT_DN: −0.531
  ES HAMAI_APOPTOSIS_VIA_TRAIL_UP: −0.368
  ES HAN_JNK_SINGALING_DN: −0.579
  ES HUTTMANN_B_CLL_POOR_SURVIVAL_DN: −0.606
  ES KEGG_NEUROACTIVE_LIGAND_RECEPTOR_INTERACTION: −0.624
  ES LEE_TARGETS_OF_PTCH1_AND_SUFU_UP: −0.515
  ES MARTINEZ_RESPONSE_TO_TRABECTEDIN: −0.482
  ES MILI_PSEUDOPODIA_HAPTOTAXIS_UP: −0.322
  ES RAMALHO_STEMNESS_UP: −0.331
  ES REACTOME_ASSOCIATION_OF_TRIC_CCT_WITH_TARGET_PROTEINS_DURING_BIOSYNTHESIS: −0.551
  ES SENGUPTA_NASOPHARYNGEAL_CARCINOMA_UP: −0.360
  ES SENGUPTA_NASOPHARYNGEAL_CARCINOMA_WITH_LMP1_UP: −0.365
  ES TCGA_GLIOBLASTOMA_COPY_NUMBER_DN: −0.533
  ES THUM_SYSTOLIC_HEART_FAILURE_DN: −0.352
  ES TURASHVILI_BREAST_LOBULAR_CARCINOMA_VS_DUCTAL_NORMAL_DN: −0.476
  ES ZHANG_TLX_TARGETS_36HR_DN: −0.470
  ES ZHANG_TLX_TARGETS_DN: −0.446
  ES ZHENG_FOXP3_TARGETS_IN_T_LYMPHOCYTE_DN: −0.611
  NES BILD_CTNNBl_ONCOGENIC_SIGNATURE: −1.841
  NES DACOSTA_UV_RESPONSE_VIA_ERCC3_COMMON_DN: −2.348
  NES DACOSTA_UV_RESPONSE_VIA_ERCC3_TTD_DN: −1.878
  NES DACOSTA_UV_RESPONSE_VIA_ERCC3_XPCS_DN: −1.784
  NES DAZARD_UV_RESPONSE_CLUSTER_G6: −1.855
  NES DOANE_BREAST_CANCER_CLASSES_DN: −1.830
  NES GABRIELY_MIR21_TARGETS: −1.642
  NES GUENTHER_GROWTH_SPHERICAL_VS_ADHERENT_DN: −1.656
  NES HAMAI_APOPTOSIS_VIA_TRAIL_UP: −1.942
  NES HAN_JNK_SINGALING_DN: −1.665
  NES HUTTMANN_B_CLL_POOR_SURVIVAL_DN: −2.076
  NES KEGG_NEUROACTIVE_LIGAND_RECEPTOR_INTERACTION: −1.898
  NES LEE_TARGETS_OF_PTCH1_AND_SUFU_UP: −1.661
  NES MARTINEZ_RESPONSE_TO_TRABECTEDIN: −1.727
  NES MILI_PSEUDOPODIA_HAPTOTAXIS_UP: −1.718
  NES RAMALHO_STEMNESS_UP: −1.615
  NES REACTOME_ASSOCIATION_OF_TRIC_CCT_WITH_TARGET_PROTEINS_DURING_BIOSYNTHESIS: −1.804
  NES SENGUPTA_NASOPHARYNGEAL_CARCINOMA_UP: −1.794
  NES SENGUPTA_NASOPHARYNGEAL_CARCINOMA_WITH_LMP1_UP: −1.837
  NES TCGA_GLIOBLASTOMA_COPY_NUMBER_DN: −1.738
  NES THUM_SYSTOLIC_HEART_FAILURE_DN: −1.673
